Test results published in US20240090547A1, “SWEETENER COMPOSITIONS COMPRISING MOGROSIDES AND USES THEREOF” (Firmenich Incorporated, priority 2021, published 2024).

Assays:
Format in all cases: in vivo, human
panel of volunteers [1] = test: Sensory testing for lemon-lime carbonated soft drink; design: key to Sweetness / Delayed Sweetness / Bitterness / Lingering Sweetness / Overall Off-Taste / Licorice Aftertaste / Bitterness Aftertaste: 10-point scale; scores normalized to average Reb M scores
Method: (§1) A panel of volunteers evaluated siamenoside I for in-mouth attributes (sweetness, delayed sweetness, sourness, bitterness, global flavor intensity, thickness/body, and astringence) and aftertaste (AT) attribtues (lingering sweetness, overall off-taste intensity, licorice off-tast, bitterness off-taste, and mouth coating) on a 10-point scale. Two replicate sessions were conducted, with a 20 minute break between sessions. There was a 90 second delay between samples within a session. Panelists evaluated all samples in a first session and evaluated the samples again a second time in a second session. Control samples of Rebaudioside M (Reb M) were evaluated during all sessions as a control. Mogroside V was also evaluated and sensory data for mogroside V is provided.
(§2) Data analysis was performed using 2-way analysis of variance (ANOVA) with interaction using Tukey's HSD test. The data was normalized for each attribute according to average scores for Reb M.
A panel of volunteers evaluated the siamenoside I-containing lemon-lime carbonated soft drink for in-mouth attributes and aftertaste attributes according to the methods described in Example 1 above.
The average normalized in-mouth attributes for a sample of lemon-lime carbonated soft drink having […] was evaluated below.
The average normalized aftertaste attributes for a sample of lemon-lime carbonated soft drink having siamenoside I was evaluated below.

panel of flavorists [2] = test: Additional sensory testing for vanilla milk, flavorist panel; conditions: 400 ppm mogrosides, 0 to 10 scale, letter in parentheses = Duncan's test group; for Sweet Linger: aftertaste, after expectoration; for Bitterness / Mouthfeel/Thickness / Peak Sweetness / Upfront Sweetness: in-mouth
Method: (§3) A panel of flavorists at three locations evaluated vanilla milk containing various mogrosides at a concentration of 400 ppm mogrosides for in-mouth attributes (peak sweetness, upfront sweetness, bitterness, and mouthfeel/thickness) and aftertaste attributes (sweet taste linger), on a 0 to 10 scale. The in-mouth attributes were evaluated while holding the sample in the mouth, while the aftertaste attributes were evaluated after expectoration. The data was analyzed using Duncan's new multiple range test and the scores are provided in the data below in parentheses.

panel of volunteers [3] = test: Sensory testing for sparkling orange beverage
Method: as §1, §2
A panel of volunteers evaluated a sparkling orange beverage containing siamenodie I for in-mouth attributes and aftertaste attributes according to the methods described in Example 1 above.
The average normalized in-mouth attributes for a sample of sparkling orange beverage containing siamenoside I was evaluated and the results are provided below.
The average normalized aftertaste attributes for a sample of sparkling orange beverage containing siamenoside I was evaluated and the results are provided below.

panel of volunteers [4] = test: Sensory testing for vanilla milk; conditions: for Licorice Aftertaste / Lingering Sweetness / Mouth Coating / Overall Off-Taste: aftertaste
Method: as §1, §2
A panel of volunteers evaluated vanilla milk for in-mouth attributes and aftertaste attributes according to the methods described in Example 1 above.
The average normalized in-mouth attributes for each sample of vanilla milk was evaluated and the results are provided below.
The average normalized aftertaste attributes for each sample of vanilla milk containing siamenoside I was evaluated and the results are provided below.

expert panelists = test: Expert panelists' comparison of mogrosides with stevia; conditions: 'Examples 4 and 5', in words
panel of flavorists [5] = test: Additional sensory testing for lemon-flavored (lemon-lime) beverage, flavorist panel; conditions: 600 ppm mogrosides, 0 to 10 scale, letter in parentheses = Duncan's test group; for Sweet Linger: aftertaste, after expectoration; for Bitterness / Mouthfeel/Thickness / Peak Sweetness / Upfront Sweetness: in-mouth
Method: as §3, with “lemon-lime beverage” for “vanilla milk containing”, “600” for “400”, “expectoration.” for “expectoration. The data was analyzed using Duncan's new multiple range test and the scores are provided in the data below in parentheses.”

panel of volunteers [6] = test: Sensory testing for apple drink (panel, in-mouth and aftertaste attributes); design: key to Sweetness / Delayed Sweetness / Bitterness / Lingering Sweetness / Overall Off-Taste / Licorice Aftertaste / Bitterness Aftertaste / Mouth Coating: 10-point scale; normalized per attribute to average Reb M scores; conditions: for Bitterness / Delayed Sweetness / Global Flavor Intensity / Sweetness / Thickness/Body: in-mouth, average normalized score
Method: as §1, §2
The average normalized in-mouth attributes for each sample of apple drink containing siamenoside I was evaluated below.
The average sweetness for each sample of apple drink containing siamenoside I was evaluated below.

[7] = 600 ppm (mogroside V 600 mg [sic]), aftertaste, average normalized score, 10-point scale
[8] = 600 ppm (mogroside V 600 mg [sic]), in-mouth, average normalized score, 10-point scale
[9] = orange sparkling beverage, in words
[10] = sparkling orange beverage, 250 ppm (mogroside V 250 mg [sic]), aftertaste, average normalized score, 10-point scale
[11] = sparkling orange beverage, 250 ppm (mogroside V 250 mg [sic]), in-mouth, average normalized score, 10-point scale
[12] = 200 ppm (mogroside V 200 mg [sic]), average normalized score, 10-point scale
[13] = 200 ppm (mogroside V 200 mg [sic]), in-mouth, average normalized score, 10-point scale
[14] = 400 ppm (mogroside V 400 mg [sic]), average normalized score, 10-point scale
[15] = 400 ppm (mogroside V 400 mg [sic]), in-mouth, average normalized score, 10-point scale
[16] = at both 200 ppm and 400 ppm, in words
[17] = 250 ppm (mogroside V 250 mg [sic]), aftertaste, 10-point scale
[18] = 250 ppm (mogroside V 250 mg [sic]), 10-point scale
[19] = 500 ppm (mogroside V 500 mg [sic]), aftertaste, 10-point scale
[20] = 500 ppm (mogroside V 500 mg [sic]), 10-point scale

## C[C@H](CC[C@@H](O[C@@H]1O[C@H](CO[C@@H]2O[C@H](CO)[C@@H](O)[C@H](O)[C@H]2O)[C@@H](O)[C@H](O)[C@H]1O[C@@H]1O[C@H](CO)[C@@H](O)[C@H](O)[C@H]1O)C(C)(C)O)[C@H]1CC[C@@]2(C)[C@@H]3CC=C4[C@@H](CC[C@H](O[C@@H]5O[C@H](CO)[C@@H](O)[C@H](O)[C@H]5O)C4(C)C)[C@]3(C)[C@H](O)C[C@]12C [siamenoside I]
Panel of volunteers [1]; [7]
  Bitterness Aftertaste: 1.3
  Licorice Aftertaste: 3.0
  Lingering Sweetness: 4.4
  Overall Off-Taste: 4.1
Panel of volunteers [1]; [8]
  Bitterness: 1.6
  Delayed Sweetness: 4.1
  Global Flavor Intensity: 4.7
  Sweetness: 6.0
Panel of volunteers [1]; 600 ppm, in words
  bitterness compared with Reb M: overall lower bitterness
  global flavor intensity compared with Reb M: same
  sweetness compared with Reb M: same
Panel of volunteers [1]; in words
  bitterness aftertaste compared with mogroside V: lower bitterness aftertaste
  bitterness compared with mogroside V: lower bitterness
  global flavor intensity compared with mogroside V: higher global flavor intensity
  in mouth and aftertaste profile compared with Reb M: comparable to that of Reb M
  sweetness compared with mogroside V: higher sweetness
Panel of flavorists [2]
  Sweet Linger: 5.875 (a)
  Bitterness: 1.688 (a)
  Mouthfeel/Thickness: 5.000 (ab)
  Peak Sweetness: 7.375 (a)—
  Upfront Sweetness: 5.938 (ab)
Panel of volunteers [3]; [9]
  delayed sweetness compared with Reb M: slightly higher
  in mouth and aftertaste profile compared with Reb M: comparable to that of Reb M
  sweetness compared with Reb M: slightly higher
  sweetness compared with mogroside V: higher sweetness
Panel of volunteers [3]; [10]
  Licorice Aftertaste: 2.8
  Lingering Sweetness: 4.4
  Mouth Coating: 2.9
  Overall Off-Taste: 3.6
Panel of volunteers [3]; [11]
  Delayed Sweetness: 3.7
  Sweetness: 5.9
Panel of volunteers [4]; [12]
  Licorice Aftertaste: 1.2
  Lingering Sweetness: 3.3
  Mouth Coating: 3.3
  Overall Off-Taste: 1.8
Panel of volunteers [4]; [13]
  Astringence: 0.7
  Delayed Sweetness: 2.2
  Fattiness: 3.5
  Sourness: 1.1
  Sweetness: 5.6
Panel of volunteers [4]; [14]
  Licorice Aftertaste: 1.7
  Lingering Sweetness: 4.8
  Mouth Coating: 0.5
  Overall Off-Taste: 2.4
Panel of volunteers [4]; [15]
  Astringence: 0.8
  Bitterness: 0.8
  Delayed Sweetness: 2.6
  Fattiness: 4.3
  Global Flavor Intensity: 4.6
  Sourness: 0.7
  Sweetness: 7.7
Panel of volunteers [4]; [16]
  lingering sweetness compared with Reb M: increased
  sweetness compared with Reb M: increased
Panel of volunteers [4]; in words
  bitterness compared with mogroside V: lower bitterness
  delayed sweetness compared with mogroside V: higher
  global flavor intensity compared with mogroside V: higher global flavor intensity
  sweetness compared with mogroside V: higher
Expert panelists
  bitter aftertaste compared with stevia: lower bitter aftertaste
  licorice aftertaste compared with stevia: lower licorice aftertaste
  mouthfeel compared with stevia: better mouthfeel
Panel of flavorists [5]
  Sweet Linger: 4.429 (bc)
  Bitterness: 2.571 (a)
  Mouthfeel/Thickness: 3.429 (ab)
  Peak Sweetness: 6.571 (b)—
  Upfront Sweetness: 4.286 (b)
Panel of volunteers [6]; [17]
  Bitterness Aftertaste: 1.3
  Licorice Aftertaste: 2.2
  Lingering Sweetness: 3.2
  Overall Off-Taste: 2.5
Panel of volunteers [6]; [18]
  Bitterness: 1.5
  Delayed Sweetness: 2.3
  Global Flavor Intensity: 3.5
  Sweetness: 4.0
  Thickness/Body: 1.2
Panel of volunteers [6]; [19]
  Licorice Aftertaste: 2.7
  Lingering Sweetness: 4.7
  Mouth Coating: 2.4
  Overall Off-Taste: 3.4
Panel of volunteers [6]; [20]
  Bitterness: 1.7
  Delayed Sweetness: 3.2
  Global Flavor Intensity: 4.4
  Sweetness: 5.3
  Thickness/Body: 1.6
Panel of volunteers [6]; in words
  global flavor intensity compared with mogroside V: higher global flavor intensity
  in-mouth and aftertaste profile compared with Reb M: comparable to that of Reb M
  overall off-taste compared with mogroside V: lower overall off-taste
  sweetness compared with mogroside V: sweeter

## Isomogroside IVE
Panel of flavorists [2]
  Sweet Linger: 4.563 (b)
  Bitterness: 1.313 (ab)
  Mouthfeel/Thickness: 4.125 (b)
  Peak Sweetness: 5.938 (c)
  Upfront Sweetness: 5.125 (b)
Expert panelists
  bitter aftertaste compared with stevia: lower bitter aftertaste
  licorice aftertaste compared with stevia: lower licorice aftertaste
  mouthfeel compared with stevia: better mouthfeel
Panel of flavorists [5]
  Sweet Linger: 3.429 (c)
  Bitterness: 1.857 (a)
  Mouthfeel/Thickness: 2.714 (b)
  Peak Sweetness: 4.857 (c)
  Upfront Sweetness: 3.571 (b)
